Consider eight compounds from patent US20150284394A1, “INHIBITORS OF BRUTON'S TYROSINE KINASE” (HOFFMANN-LA ROCHE INC., priority 2012, published 2015).

Some results are limits rather than exact numbers.

In assay [1] the test system is B cells in human blood. Description: Inhibition of B cell activation in whole blood measured by CD69 expression. In kind it is cell-based. As to conditions: anti-IgM stimulation, 20 hours, CD69-positive cells that are also CD20-positive, read-out: HWB IC50. How it is done:
A procedure to test the ability of Btk inhibitors to suppress B cell receptor-mediated activation of B cells in human blood is as follows:
Human whole blood (HWB) is obtained from healthy volunteers, with the following restrictions: 24 hr drug-free, non-smokers. Blood is collected by venipuncture into Vacutainer tubes anticoagulated with sodium heparin. Test compounds are diluted to ten times the desired starting drug concentration in PBS (20×), followed by three-fold serial dilutions in 10% DMSO in PBS to produce a nine point dose-response curve. 5.5 μl of each compound dilution is added in duplicate to a 2 ml 96-well V bottom plate (Analytical Sales and Services, #59623-23); 5.5 μl of 10% DMSO in PBS is added to control and no-stimulus wells. HWB (100 μl) is added to each well, and after mixing the plates are incubated at 37 C, 5% CO2, 100% humidity for 30 minutes. Goat F(ab′)2 anti-human IgM (Southern Biotech, #2022-14) (10 μl of a 500 μg/ml solution, 50 μg/ml final concentration) is added to each well (except the no-stimulus wells) with mixing and the plates are incubated for an additional 20 hours.
At the end of the 20 hour incubation, samples are incubated with florescent-probe-labeled anti-bodies (15 μl PE Mouse anti-Human CD20, BD Pharmingen, #555623, and/or 20 ul APC Mouse anti-Human CD69, BD Pharmingen #555533) for 30 minutes, at 37 C, 5% CO2, 100% humidity. Included are induced control, unstained and single stains for compensation adjustments and initial voltage settings. Samples are then lysed with 1 ml of 1× Pharmingen Lyse Buffer (BD Pharmingen #555899), and plates are centrifuged at 1800 rpm for 5 minutes. Supernatants are removed via suction and the remaining pellets are lysed again with another 1 ml of 1× Pharmingen Lyse Buffer, and plates are spun down as before. Supernatants are aspirated and remaining pellets are washed in FACs buffer (PBS+1% FBS). After a final spin, the supernantants are removed and pellets are resuspended in 180 μl of FACs buffer. Samples are transferred to a 96 well plate suitable to be run on the HTS 96 well system on the BD LSR II flow cytometer.
Using appropriate excitation and emission wavelengths for the fluorophores used, data are acquired and percent positive cell values are obtained using Cell Quest Software. Results are initially analyzed by FACS analysis software (Flow Jo). […] The IC50 values are calculated using XLfit software version 3, equation 201.

Assay [2] has as its target Bruton's Tyrosine Kinase (Homo sapiens, UniProt Q06187). Description: Bruton's Tyrosine Kinase (BTK) Inhibition TR-FRET competition assay. In kind it is binding. As to conditions: inactivated state of BTK; Kinase Tracer 178; 18-24 h at 14° C. The protocol:
This BTK competition assay measures compound potency (IC50) for the inactivated state of Bruton's Tyrosine Kinase using FRET (Forster/Fluorescence Resonance Energy Transfer) technology. The BTK-Eu complex was incubated on ice one hour prior to use at a starting concentration of 50 nM BTK-Bioease™: 10 nM Eu-streptavidin (Perkin-Elmer Catalog# AD0062). The assay buffer consisted of 20 mM HEPES (pH 7.15), 0.1 mM DTT, 10 mM MgCl2, 0.5 mg/ml BSA with 3% Kinase Stabilizer (Fremont Biosolutions, Catalog # STB-K02). After 1 h, the reaction mixture from above was diluted 10 fold in assay buffer to make 5 nM BTK: 1 nM Eu-Streptavidin complex (donor fluorophore). […] of a mixture of 0.11 nM BTK-Eu and 0.11 nM Kinase Tracer 178 (Invitrogen, Catalog # PV5593,) with BTK-Eu alone as no negative control, was then dispensed into 384-well flat bottom plates (Greiner, 784076). Compounds to be tested in assay were prepared as 10× concentrations and serial dilution in half-log increments was performed in DMSO so as to generate 10 point curves. To initiate the FRET reaction, compounds prepared as 10× stock in DMSO was added to the plates and the plates were incubated 18-24 h at 14° C.
After the incubation the plates were read on a BMG Pherastar Fluorescent plate reader (or equivalent) and used to measure the emission energy from the europium donor fluorophore (620 nm emission) and the FRET (665 nm emission). The negative control well values were averaged to obtain the mean minimum. The positive “no inhibitor” control wells were averaged to obtain the mean maximum. Percent of maximal FRET was calculated using following equation:
% max FRET=100×[(FSRcmpd−FSRmean min)/(FSRmean max−FSRmean min)]
where FSR=FRET Signal ratio. % Max FRET curves were plotted in Activity Base (Excel) and the IC50(%), hill slope, z′ and % CV were determined. The mean IC50 and standard deviation will be derived from duplicate curves (singlet inhibition curves from two independent dilutions) using Microsoft Excel.

Bruton's Tyrosine Kinase, sequence (Q06187 whole entry): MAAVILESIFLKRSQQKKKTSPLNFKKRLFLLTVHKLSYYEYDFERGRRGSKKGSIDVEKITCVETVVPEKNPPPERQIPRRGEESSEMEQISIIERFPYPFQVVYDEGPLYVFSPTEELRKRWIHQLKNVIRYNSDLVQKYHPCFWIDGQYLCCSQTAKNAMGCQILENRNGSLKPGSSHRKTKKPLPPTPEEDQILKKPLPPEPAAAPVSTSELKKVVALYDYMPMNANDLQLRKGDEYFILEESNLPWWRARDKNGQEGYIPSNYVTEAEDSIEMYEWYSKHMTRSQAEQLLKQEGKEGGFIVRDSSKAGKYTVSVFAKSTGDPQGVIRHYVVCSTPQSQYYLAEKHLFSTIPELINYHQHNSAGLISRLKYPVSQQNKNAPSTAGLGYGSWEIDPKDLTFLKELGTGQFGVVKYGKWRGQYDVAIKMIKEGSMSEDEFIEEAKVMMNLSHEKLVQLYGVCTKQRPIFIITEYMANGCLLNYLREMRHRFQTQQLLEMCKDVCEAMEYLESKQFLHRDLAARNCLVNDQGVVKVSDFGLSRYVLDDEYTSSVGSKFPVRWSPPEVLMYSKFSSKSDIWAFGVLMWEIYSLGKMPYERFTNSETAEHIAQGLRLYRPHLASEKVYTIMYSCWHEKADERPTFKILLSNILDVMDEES

What is called IC50 is the concentration that gives 50% inhibition. For `Cn1cc(-c2cc3c(-c4ccc(CNC(=O)N5Cc6ccccc6C5)c(F)c4)ncnc3[nH]2)cn1` [Compound I-41, 1,3-Dihydro-isoindole-2-carboxylic acid 2-fluoro-4-[6-(1-methyl-1H-pyrazol-4-yl)-7H-pyrrolo[2,3-d]pyrimidin-4-yl]-benzylamide], the IC50 in assay [1] came to 154 nM; in assay [2], 0.6 nM.

`CN(C)CCn1cc(-c2cc3c(-c4ccc(CNC(=O)c5ccc(C(C)(C)C)cc5)c(F)c4)ncnc3[nH]2)cn1` [Compound I-42, 4-tert-Butyl-N-(4-{6-[1-(2-dimethylamino-ethyl)-1H-pyrazol-4-yl]-7H-pyrrolo[2,3-d]pyrimidin-4-yl}-2-fluoro-benzyl)-benzamide]: the IC50 in assay [1] is 230 nM; in assay [2], 0.5 nM.

For the compound `CN(C)CCn1cc(-c2cc3c(-c4ccc(CNC(=O)N5CC(OC(C)(C)C)C5)c(F)c4)ncnc3[nH]2)cn1` [Compound I-43, 3-tert-Butoxy-azetidine-1-carboxylic acid 4-{6-[1-(2-dimethylamino-ethyl)-1H-pyrazol-4-yl]-7H-pyrrolo[2,3-d]pyrimidin-4-yl}-2-fluoro-benzylamide], the IC50 in assay [1] was determined as 276 nM; in assay [2], 0.6 nM.

As for `CN(C)CCn1cc(-c2cc3c(-c4ccc(CNC(=O)N5Cc6ccccc6C5)c(F)c4)ncnc3[nH]2)cn1` [Compound I-44, 1,3-Dihydro-isoindole-2-carboxylic acid 4-{6-[1-(2-dimethylamino-ethyl)-1H-pyrazol-4-yl]-7H-pyrrolo[2,3-d]pyrimidin-4-yl}-2-fluoro-benzylamide], the values for the IC50 in assay [1] and in assay [2] were 188 nM and 0.52 nM, respectively.

In the case of `CCOC(=O)Cn1cc(-c2cc3c(-c4ccc(CNC(=O)c5ccc(C(C)(C)C)cc5)c(F)c4)ncnc3[nH]2)cn1` [Compound I-45, [4-(4-{4-[(4-tert-Butyl-benzoylamino)-methyl]-3-fluoro-phenyl}-7H-pyrrolo[2,3-d]pyrimidin-6-yl)-pyrazol-1-yl]-acetic acid ethyl ester], the IC50 in assay [1] came out at 222 nM; in assay [2] it was 0.6 nM.

Take `CC(C)(C)c1ccc(C(=O)NCc2ccc(-c3ncnc4[nH]c(-c5cnn(CC(=O)O)c5)cc34)cc2F)cc1` [Compound I-46, [4-(4-{4-[(4-tert-Butyl-benzoylamino)-methyl]-3-fluoro-phenyl}-7H-pyrrolo[2,3-d]pyrimidin-6-yl)-pyrazol-1-yl]-acetic acid]: the IC50 in assay [1] was > 50000 nM; in assay [2], 1 nM.

Turning to `Cn1cc(-c2cc3c(-c4ccc(CNC(=O)c5cc6n(n5)CCCC6)c(F)c4)ncnc3[nH]2)cn1` [Compound I-47, N-(2-fluoro-4-(6-(1-methyl-1H-pyrazol-4-yl)-7H-pyrrolo[2,3-d]pyrimidin-4-yl)benzyl)-4,5,6,7-tetrahydropyrazolo[1,5-a]pyridine-2-carboxamide], the IC50 in assay [1] came out at 674 nM; in assay [2] it was 3.2 nM.

As for `Cn1cc(-c2cc3c(-c4ccc(CNC(=O)c5nc(C(C)(C)C)no5)c(F)c4)ncnc3[nH]2)cn1` [Compound I-49, 3-tert-Butyl-[1,2,4]oxadiazole-5-carboxylic acid 2-fluoro-4-[6-(1-methyl-1H-pyrazol-4-yl)-7H-pyrrolo[2,3-d]pyrimidin-4-yl]-benzylamide], the IC50 in assay [1] was determined as 2 nM; in assay [2], 0.11 nM.
